Results taken from US5753681A, “Treatment and prophylaxis of pancreatitis” (Sankyo Company, Limited, priority 1996, dated 1998).

How the values were obtained:
[1] = Increase in the pancreatic weight in a model of spontaneous chronic pancreatitis (3 months); format: in vivo, male WBN/Kob rats; details: treated group, 0.2% in feed, 140 mg/kg/day, three months; control 773 ± 17; **p < 0.01 vs. control
Description: Since the decrease in the amount of pancreatic parenchyma resulting from chronic pancreatitis causes loss of pancreatic weight, any suppression of the decrease in the amount of pancreatic parenchyma can be used as an index for evaluating any improvement in the pancreatitis. Furthermore, since degeneration and necrosis of the pancreatic parenchyma and its replacement by connective tissue occurs in chronic pancreatitis, the seriousness of the pancreatitis can be estimated by histopathologically measuring the area over which the pancreatic parenchyma is replaced with connective tissue (known as the "cicatrized area").
Measurement of the weight of the pancreas may be carried out by conventional procedures after the experimental animals have been sacrificed by phlebotomy.
The test animals were male WBN/Kob rats, which are commonly used as models of spontaneous chronic pancreatitis and suffer pancreatic weight loss and dysfunction of the exocrine pancreatic tissue due to degeneration and necrosis of the pancreatic parenchyma and its replacement by connective tissue [Tsuchitani et al., Laboratory Animals, 19(3), 200-207, (1985)]. […] After the rats had been fed with the feeds for three months, the pancreas of each animal was totally enucleated and its weight was measured.

[2] = Histopathology of pancreatic tissue of Example 6: total cross-sectional area and cicatrized area; format: in vivo, male WBN/Kob rats; details: 9.5 months; for Cicatrized area in the exocrine pancreatic tissue: **p < 0.01
Procedure: The measurement of the cicatrized area may also be carried out by conventional procedures. More specifically, male WBN/Kob rats are used as models of spontaneous chronic pancreatitis and are fed with a powdered feed admixed with a test compound. The pancreas of each animal is then totally enucleated. Its weight is measured and also the cicatrized area is measured relative to the total cross-sectional area of the pancreas tissue sliced by an image analyser.
In order to evaluate the results of Example 2 histopathologically, each pancreas used for weight measurement in Example 2 was fixed in 10% neutral formalin. It was then divided into a spleen side half and a duodenum side half, and each half was sliced at 3 mm intervals to provide cross-sectional tissue pieces. All of these tissue pieces were subjected to paraffin sectioning by conventional procedures and then to hematoxylin-eosin staining and Masson's trichrome staining to prepare two tissue preparations, which were used for histopathological examination. The total cross-sectional area of the pancreatic tissue piece on each preparation was measured using an image analyser (SPICCAII, manufactured by Olympus Optical Co., Ltd.).
In addition, the surface area of the zone which had undergone degeneration and necrosis and in which the exocrine pancreatic tissue was replaced with connective tissue (the cicatrized area) was measured using an image analyser.
The test animals were male WBN/Kob rats. Each group of test animals contained 6 animals, and the animals were used for the experiment when they had reached 12 weeks old. The animals were fed with powdered feed F2 mixed with 0.2% or 0.05% of troglitazone for 9.5 months. These groups are hereinafter referred to as "the 0.2% group" and "the 0.05% group", respectively. The average doses of the compound during this period were 120 mg/kg/day and 30 mg/kg/day, respectively. Meanwhile, another six rats (control group) were fed with the powdered feed F2 only. After the rats had been fed with the feeds for 9.5 months, each rat was decapitated and its blood was collected. The blood serum was separated and the plasma lipase level was measured using an autoanalyser (type 7250, manufactured by Hitachi Ltd.).
In order to evaluate the results of Example 6 histopathologically, the total cross-sectional area and cicatrized area of each pancreas whose weight was measured in Example 6 was measured by the procedure described in Example 4.

Cc1c(C)c2c(c(C)c1O)CCC(C)(COc1ccc(CC3SC(=O)NC3=O)cc1)O2 (stereo not drawn) [troglitazone, 5-[4-(6-Hydroxy-2,5,7,8-tetramethylchroman-2-ylmethoxy)benzyl]thiazolidine-2,4-dione]
Pancreatic weight [1]: 936 ± 27 mg | Cicatrized area in the exocrine pancreatic tissue ([2]; duodenum side, 0.05% group, control 2.48 ± 0.39): 1.03 ± 0.16 mm^2 | Total cross-sectional area of pancreatic tissue piece ([2]; duodenum side, 0.05% group, control 106.1 ± 6.6): 110.6 ± 7.7 mm^2 | Cicatrized area in the exocrine pancreatic tissue ([2]; duodenum side, 0.2% group, control 2.48 ± 0.39): 0.65 ± 0.06 mm^2 | Total cross-sectional area of pancreatic tissue piece ([2]; duodenum side, 0.2% group, control 106.1 ± 6.6): 122.3 ± 7.4 mm^2 | Cicatrized area in the exocrine pancreatic tissue ([2]; spleen side pancreatic half, 0.05% group, control 4.96 ± 0.82): 1.68 ± 0.12 mm^2 | Total cross-sectional area of pancreatic tissue piece ([2]; spleen side pancreatic half, 0.05% group, control 103.0 ± 16.9): 96.2 ± 8.2 mm^2 | Cicatrized area in the exocrine pancreatic tissue ([2]; spleen side pancreatic half, 0.2% group, control 4.96 ± 0.82): 1.23 ± 0.19 mm^2 | Total cross-sectional area of pancreatic tissue piece ([2]; spleen side pancreatic half, 0.2% group, control 103.0 ± 16.9, *p < 0.05): 141.9 ± 10.6 mm^2
